Measured values: article PMC9618103, “Exploratory toxicology studies of 2,3-substituted imidazo[1,2-a]pyridines with antiparasitic and anti-inflammatory properties” (Toxicology Research, 2022)

Experiments:
[1] = tested on: Wistar rats; assay: Subacute toxicity: serum alanine aminotransferase and alkaline phosphatase activity; assay type: in vivo; conditions: serum; rats, p.o., 14 days at 10% of LD50 (CCl4, APAP: once daily, 3 days); mean ± SEM, n = 6
Protocol: (§1) For toxicity tests, acclimatized rats were randomly allocated to 12 groups (n = 12 for the control and n = 6 for the rest groups). […] Meanwhile, the aforementioned vehicles (dose volume 2 mL/kg b.w.) were administered to 3 groups. […] Upon completion of the 14-day treatments and before sample collection, the bladders of animals were emptied by gentle pressure on the lower part of the abdomen to induce urination. The animals were then housed in individual metabolic cages to collect urine for a period of 6 h and then the volume was recorded. Afterward, blood samples were obtained and the serum was separated by centrifugation at 1,620 × g for 10 min at room temperature.
The activities of serum alanine aminotransferase (ALT) and alkaline phosphatase (ALP) were measured with standard kits (RANDOX, Laboratories Ltd, UK).

[2] = tested on: Wistar rats; assay: Subacute toxicity: glomerular filtration rate (creatinine clearance) and serum creatinine; assay type: in vivo; conditions: for Glomerular Filtration Rate / Serum Creatinine: rats, p.o., 14 days at 10% of LD50 (CCl4, APAP: once daily, 3 days), mean ± SEM, n = 6
Protocol: (§2) For toxicity tests, acclimatized rats were randomly allocated to 12 groups (n = 12 for the control and n = 6 for the rest groups). […] Meanwhile, the aforementioned vehicles (dose volume 2 mL/kg b.w.) were administered to 3 groups. […] The animals were then housed in individual metabolic cages to collect urine for a period of 6 h and then the volume was recorded. Afterward, blood samples were obtained and the serum was separated by centrifugation at 1,620 × g for 10 min at room temperature.
(§3) Serum and urinary creatinine were determined by the Jaffe method. With this value, evaluation was made of the fractional excretion of sodium (FES), fractional excretion of potassium (FEP), and fractional excretion of glucose.[30]^,[31] The GFR was calculated from clearance of endogenous creatinine using the conventional equation:where GFR (CCr) is the creatinine clearance rate (mL/min); UCr and SCr are the creatinine concentrations (mg/dL) in urine and serum, respectively; and φ is the urinary flow rate (UFR) (mL/min). To avoid the error from the tubular secretion of creatinine found in males, only female animals were used.

[3] = tested on: Wistar rats; assay: Hepatic and renal reactive oxygen species (DCF formation); assay type: in vivo; conditions: rats, p.o., 14 days at 10% of LD50 (CCl4, APAP: once daily, 3 days), mean ± SEM, n = 6; for Renal ROS: kidney; for Hepatic ROS: liver
Protocol: as §1
Reactive oxygen species (ROS) were measured by formation of 2′,7′-dichlorofluorescein (DCF). An aliquot of 10 μL (kidney) or 5 μL (liver) of the homogenates was added to 1,940 or 1,945 μL of TRIS:HEPES (18:1) and was incubated in the presence of 50 μL of 2′,7′-dichlorofluorescein diacetate for 1 h at 37 °C. In order to quench the reaction, the mixture was chilled using an ice bath. The fluorescence was measured using a Shimadzu fluorometer (Japan; λex = 488 nm; λem = 525 nm). The results were expressed as nM DCF formed per mg protein/h.[33]
(§4) The protein concentration in homogenates was measured by the Bradford method.[29]

[4] = tested on: Wistar rats; assay: Subacute toxicity: water and electrolyte balance (osmolality, sodium, potassium, urinary flow); assay type: in vivo; conditions: for Filtered Load of Potassium / Filtered Load of Sodium / Fractional Excretion of Potassium / Fractional Excretion of Sodium / Serum Osmolality / Serum Potassium / Serum Sodium / U/S Osm ratio / Urinary Flow Rate / Urinary Potassium Excretion / Urinary Sodium Excretion: rats, p.o., 14 days at 10% of LD50 (CCl4, APAP: once daily, 3 days), mean ± SEM, n = 6
Protocol: as §2
Osmolality of serum and urine were assessed (in triplicate) by using a vapor pressure osmometer (Wescor 5500, Logan, United States). U/S ratio as well as osmolar (COsm) and free water clearances were calculated via conventional equations:where UOsm and SOsm are the osmolality values (mOsm/Kg) in urine and serum, respectively, and φ is the UFR (mL/min).
(§5) The levels of sodium and potassium were measured in urine and serum using a flame photometer (Corning 400, Medfield, United States). Calculation was made of the clearance, fractional excretion, and filtered load of sodium (FLS), filtered load of potassium (FLP), and filtered load of glucose (FLG) using the conventional equations:where CX is the clearance rate of X (mL/min), CCr is the creatinine clearance rate (mL/min), UX and SX are the […] concentrations of X, respectively, φ is the UFR (mL/min), FEX is the fractional excretion (%) of X, and FLX is the filtered load of X in μEq/min (Na^+ or K^+) or mg/min (glucose).

[5] = tested on: Wistar rats; assay: Subacute toxicity: serum and urine glucose, urinary protein excretion; assay type: in vivo; conditions: for Filtered Load of Glucose / Fractional Excretion of Glucose / Serum Glucose / Urinary Glucose Excretion / Urinary Protein Excretion: rats, p.o., 14 days at 10% of LD50 (CCl4, APAP: once daily, 3 days), mean ± SEM, n = 6
Protocol: as §2
Serum and urine glucose concentration were calculated using GOD-PAP kits (RANDOX, Laboratories Ltd, UK). Urinary protein was quantified using the Bradford method.[29]
as §3, §5

[6] = tested on: Wistar rats; assay: Hepatic and renal lipid peroxidation (lipid-soluble fluorescence); assay type: in vivo; conditions: rats, p.o., 14 days at 10% of LD50 (CCl4, APAP: once daily, 3 days), mean ± SEM, n = 6; for Renal Lipoperoxidation: kidney; for Hepatic Lipoperoxidation: liver
Protocol: as §1
Lipid peroxidation (LPO) was evaluated by the formation of lipid-soluble fluorescence, as previously described. Briefly, kidney and liver tissues were homogenized in 3 and 5 mL of phosphate buffer (0.2 M, pH = 7.4), respectively. A volume of 1 mL (kidney) or 0.8 mL (liver) of the homogenates was added to 7 mL of chloroform-methanol (2:1, v/v), and after 15 s of vortex mixing, the resulting mixture was cooled using an ice bath for 30 min to allow for phase separation. The fluorescence of the organic phase was measured using a Shimadzu fluorometer (Japan; λex = 370 nm; λem = 430 nm), whose sensitivity was adjusted to 140 fluorescence units by using 1 μg/mL of quinine sulfate in 50 mM H2SO4. The results were expressed as relative fluorescence units per milligram of protein.[33]
as §4

[7] = tested on: NIH mice; assay: Acute oral toxicity, median lethal dose (LD50); assay type: in vivo; conditions: for Category (GHS acute oral toxicity hazard category) / Hazard statement (GHS): based on oral LD50, according to GHS [39]; for Oral LD50: female NIH mice, single oral dose, 14 days observation
Protocol: All treatments were administrated orally (p.o.) according to the scheme mentioned below.
Acute toxicity tests were performed in order to measure the median lethal dose (LD50). After acclimatization, mice were randomly allocated to ten groups (n = 4), including the control group (e.g. water, Tween 80, or PO) and the experimental groups, each with a single dose of one of the IMPYs at 4 levels of dose (0.5, 1.0, 2.0, and 4.0 g/kg b.w.).
Animals were food deprived overnight prior to administration of the chemical compounds or vehicles, and food was returned 4 h after dosing. Animals had access to water ad libitum throughout the study.[27]^,[28]

[8] = tested on: renal secretory pathway of organic anions; assay: Active tubular secretion of organic acids (PAH uptake in kidney cortex slices); assay type: in vivo, rats; conditions: for PAH t/m ratio: kidney cortex slices, PAH 1 mM, 1 h, 25 °C, rats, p.o., 14 days at 10% of LD50 (CCl4, APAP: once daily, 3 days), mean ± SEM, n = 6
Protocol: as §1
p-Aminohippuric acid (PAH) was used as an indicator of the renal secretory pathway of organic anions. Kidneys were extracted and immediately submerged in Ringer solution (pH = 7.4 and mOsm = 290 ± 10 mOsm/kg) under constant bubbling with O2/CO2 (95/5%). The kidneys were decapsulated and slices of the kidney cortex were obtained, which were then incubated in Ringer solution containing PAH (1 mM) for 1 h at 25 °C under constant bubbling with O2/CO2 (95/5%). The levels of PAH were quantified with the Bratton-Marshall method and results were expressed as the PAH tissue/medium ratio (PAH t/m ratio).[31]^,[32]

| SMILES | Alanine Aminotransferase [1] | Alkaline Phosphatase [1] | Glomerular Filtration Rate [2] | Serum Creatinine [2] | Renal ROS [3] | Hepatic ROS [3] | Filtered Load of Potassium [4] | Filtered Load of Sodium [4] | Fractional Excretion of Potassium [4] | Fractional Excretion of Sodium [4] | Serum Osmolality [4] | Serum Potassium [4] | Serum Sodium [4] | U/S Osm ratio [4] | Urinary Flow Rate [4] | Urinary Potassium Excretion [4] | Urinary Sodium Excretion [4] | Filtered Load of Glucose [5] | Fractional Excretion of Glucose [5] | Serum Glucose [5] | other results |
| --- | --- | --- | --- | --- | --- | --- | --- | --- | --- | --- | --- | --- | --- | --- | --- | --- | --- | --- | --- | --- | --- |
| O=C(O)c1nc2ccccn2c1[N+](=O)[O-] [Compound 3b, 3-nitroimidazo[1,2-a]pyridine-2-carboxylic acid] | 32.76 ± 5.37 U/L | 56.63 ± 6.67 U/L | 0.63 ± 0.08 mL/min | 0.57 ± 0.12 mg/dL | 184.33 ± 42.31 nM de DCF/mg protein/h | 290.96 ± 40.60 nM de DCF/mg protein/h | 4.15 ± 0.53 µEq/min | 90.75 ± 12.03 µEq/min | 11.63 ± 2.44% | 0.38 ± 0.05% | 293.74 ± 2.06 mOsm/kg | 6.69 ± 0.40 mEq/L | 144.61 ± 3.41 mEq/L | 3.21 ± 0.39 | 3.75 ± 0.75 µL/min | 0.43 ± 0.07 µEq/min | 0.34 ± 0.06 µEq/min | 0.74 ± 0.09 mg/min | 0.04 ± 3.7E-3% | 121.37 ± 8.03 mg/dL | Urinary Glucose Excretion [5]: 262.45 ± 19.41 ng/min; Urinary Protein Excretion [5]: 1.18 ± 0.23 µg/min; Renal Lipoperoxidation [6]: 0.44 ± 0.09 URF/mg protein; Hepatic Lipoperoxidation [6]: 0.80 ± 0.03 URF/mg protein; Category (GHS acute oral toxicity hazard category) [7]: 5; Hazard statement (GHS) [7]: May be harmful if swallowed; Oral LD50 [7]: > 2.000 g/kg b.w.; PAH t/m ratio [8]: 1.92 ± 0.23; PAH t/m ratio, change in words ([8]; versus control (2a also versus Tween 80 and 2b)): decreased |
| O=C(O)c1cn2ccccc2n1 [Compound 3a, imidazo[1,2-a]pyridine-2-carboxylic acid] | 25.62 ± 1.27 U/L | 93.76 ± 13.08 U/L | 0.28 ± 0.04 mL/min | 1.05 ± 0.05 mg/dL | 159.65 ± 14.96 nM de DCF/mg protein/h | 349.63 ± 18.87 nM de DCF/mg protein/h | 1.98 ± 0.44 µEq/min | 40.07 ± 7.62 µEq/min | 27.89 ± 6.73% | 0.53 ± 0.16% | 304.73 ± 1.82 mOsm/kg | 6.83 ± 0.54 mEq/L | 148.12 ± 3.02 mEq/L | 3.18 ± 0.61 | 2.20 ± 0.50 µL/min | 0.50 ± 0.12 µEq/min | 0.17 ± 0.05 µEq/min | 0.22 ± 0.03 mg/min | 0.05 ± 0.01% | 80.56 ± 2.31 mg/dL | GFR, change in words ([2]; in comparison to the control group): lower; osmolar clearance, change in words ([4]; compared to the control group): lower; freewater clearance, change in words ([4]; compared to the control group, significant by PLS VIP and ANOVA): greater; FLS (filtered load of sodium), change in words ([4]; in comparison with the control group): decreased; FEG (fractional excretion of glucose), change in words ([5]; compared to control values): increased; FLG (filtered load of glucose), change in words ([5]; compared to control values): reduced; Urinary Glucose Excretion [5]: 92.91 ± 12.35 ng/min; Urinary Protein Excretion [5]: 0.69 ± 0.14 µg/min; Renal Lipoperoxidation [6]: 0.29 ± 0.03 URF/mg protein; Hepatic Lipoperoxidation [6]: 0.79 ± 0.03 URF/mg protein; Category (GHS acute oral toxicity hazard category) [7]: 5; Hazard statement (GHS) [7]: May be harmful if swallowed; Oral LD50 [7]: > 2.000 g/kg b.w.; PAH t/m ratio [8]: 2.25 ± 0.10 |
